From ChEMBL document CHEMBL4507283, “Data for DCP probe BI-1935” (2021)

Experiments:
[1] = molecular target: Tyrosine-protein kinase ZAP-70 (Homo sapiens) (UniProt P43403); conditions: Compound concentration 1000.0 nM
[2] = molecular target: TGF-beta receptor type-2 (Homo sapiens) (UniProt P37173); conditions: Compound concentration 1000.0 nM
[3] = molecular target: Histamine H1 receptor (Homo sapiens) (UniProt P35367); conditions: Compound concentration 10.0 uM
[4] = molecular target: 5'-AMP-activated protein kinase catalytic subunit alpha-1 (Homo sapiens) (UniProt Q13131); conditions: Compound concentration 1000.0 nM
[5] = molecular target: Cyclin-dependent kinase 9 (Homo sapiens) (UniProt P50750); conditions: Compound concentration 1000.0 nM
[6] = molecular target: Mitogen-activated protein kinase kinase kinase 12 (Homo sapiens) (UniProt Q12852); conditions: Compound concentration 1000.0 nM
[7] = molecular target: Casein kinase II subunit alpha' (Homo sapiens) (UniProt P19784); conditions: Compound concentration 1000.0 nM
[8] = molecular target: Receptor-interacting serine/threonine-protein kinase 4 (Homo sapiens) (UniProt P57078); conditions: Compound concentration 1000.0 nM
Chain of Receptor-interacting serine/threonine-protein kinase 4 (Homo sapiens) (P57078 whole entry): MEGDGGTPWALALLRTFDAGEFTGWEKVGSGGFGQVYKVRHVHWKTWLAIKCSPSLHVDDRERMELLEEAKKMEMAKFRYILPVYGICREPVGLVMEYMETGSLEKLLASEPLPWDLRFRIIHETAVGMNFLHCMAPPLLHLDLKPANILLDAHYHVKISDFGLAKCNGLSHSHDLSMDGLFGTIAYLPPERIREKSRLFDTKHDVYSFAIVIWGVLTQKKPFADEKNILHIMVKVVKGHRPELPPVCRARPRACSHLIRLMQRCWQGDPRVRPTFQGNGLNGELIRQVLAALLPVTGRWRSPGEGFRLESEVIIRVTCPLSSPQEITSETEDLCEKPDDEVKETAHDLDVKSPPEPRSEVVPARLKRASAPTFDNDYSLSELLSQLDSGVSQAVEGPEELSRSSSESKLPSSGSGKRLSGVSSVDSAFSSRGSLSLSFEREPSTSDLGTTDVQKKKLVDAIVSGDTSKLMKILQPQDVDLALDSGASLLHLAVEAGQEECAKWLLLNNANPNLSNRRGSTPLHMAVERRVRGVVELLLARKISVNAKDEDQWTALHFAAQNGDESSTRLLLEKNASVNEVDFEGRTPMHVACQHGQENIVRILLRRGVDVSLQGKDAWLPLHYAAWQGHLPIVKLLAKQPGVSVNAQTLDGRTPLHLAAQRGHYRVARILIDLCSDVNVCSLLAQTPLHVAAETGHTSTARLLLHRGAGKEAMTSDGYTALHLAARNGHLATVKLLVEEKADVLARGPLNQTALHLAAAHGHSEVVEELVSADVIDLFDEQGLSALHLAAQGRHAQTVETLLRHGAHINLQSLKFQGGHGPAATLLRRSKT

[9] = molecular target: Mitogen-activated protein kinase kinase kinase 9 (Homo sapiens) (UniProt P80192); conditions: Compound concentration 1000.0 nM
[10] = molecular target: SRSF protein kinase 3 (Homo sapiens) (UniProt Q9UPE1); conditions: Compound concentration 1000.0 nM
Chain of SRSF protein kinase 3 (Homo sapiens) (Q9UPE1 whole entry): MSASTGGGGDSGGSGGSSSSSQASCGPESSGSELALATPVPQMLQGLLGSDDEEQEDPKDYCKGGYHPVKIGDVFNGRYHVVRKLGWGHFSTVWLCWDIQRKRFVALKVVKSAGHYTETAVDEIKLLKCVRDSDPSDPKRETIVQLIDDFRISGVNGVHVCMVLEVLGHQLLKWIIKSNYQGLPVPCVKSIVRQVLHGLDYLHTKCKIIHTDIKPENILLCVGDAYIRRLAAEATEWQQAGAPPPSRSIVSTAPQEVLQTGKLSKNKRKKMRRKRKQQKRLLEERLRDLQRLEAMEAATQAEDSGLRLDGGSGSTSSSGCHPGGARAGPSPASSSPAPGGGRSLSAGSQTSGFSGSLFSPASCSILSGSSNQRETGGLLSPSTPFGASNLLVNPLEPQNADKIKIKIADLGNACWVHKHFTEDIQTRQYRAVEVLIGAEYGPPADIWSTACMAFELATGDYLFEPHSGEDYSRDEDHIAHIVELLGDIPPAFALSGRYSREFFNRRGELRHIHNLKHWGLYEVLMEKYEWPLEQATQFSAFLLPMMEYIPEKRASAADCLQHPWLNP

[11] = molecular target: Mitogen-activated protein kinase 9 (Homo sapiens) (UniProt P45984); conditions: Compound concentration 1000.0 nM
Chain of Mitogen-activated protein kinase 9 (Homo sapiens) (P45984 whole entry, looked up): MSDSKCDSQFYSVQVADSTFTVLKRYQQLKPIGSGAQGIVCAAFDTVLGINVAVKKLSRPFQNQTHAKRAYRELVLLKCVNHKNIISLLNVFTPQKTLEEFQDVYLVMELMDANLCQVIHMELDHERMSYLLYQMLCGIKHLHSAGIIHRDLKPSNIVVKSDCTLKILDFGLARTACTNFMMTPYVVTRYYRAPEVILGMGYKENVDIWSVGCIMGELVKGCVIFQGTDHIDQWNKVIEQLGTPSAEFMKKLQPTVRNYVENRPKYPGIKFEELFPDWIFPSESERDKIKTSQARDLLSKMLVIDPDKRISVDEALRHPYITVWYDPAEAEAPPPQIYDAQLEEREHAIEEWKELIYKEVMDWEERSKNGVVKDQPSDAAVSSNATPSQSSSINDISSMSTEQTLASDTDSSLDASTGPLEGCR

[12] = molecular target: Serine/threonine-protein kinase Nek6 (Homo sapiens) (UniProt Q9HC98); conditions: Compound concentration 1000.0 nM
[13] = molecular target: Cyclin-dependent kinase-like 3 (Homo sapiens) (UniProt Q8IVW4); conditions: Compound concentration 1000.0 nM
[14] = molecular target: Epidermal growth factor receptor (Homo sapiens) (UniProt P00533); conditions: Compound concentration 1000.0 nM
[15] = molecular target: 1-phosphatidylinositol 3-phosphate 5-kinase (Homo sapiens) (UniProt Q9Y2I7); conditions: Compound concentration 1000.0 nM
[16] = molecular target: Glutamate receptor ionotropic, NMDA 1 (Rattus norvegicus) (UniProt P35439); experiment: GLUTAMAT/R Eurofins-Panlabs selectivity data (BI); conditions: Compound concentration 10.0 uM
[17] = system: Hepatocyte growth factor receptor (Homo sapiens), P08581 [M1250T]; conditions: Compound concentration 1000.0 nM
[18] = molecular target: Ribosomal protein S6 kinase alpha-5 (Homo sapiens) (UniProt O75582); conditions: Compound concentration 1000.0 nM
[19] = molecular target: Homeodomain-interacting protein kinase 3 (Homo sapiens) (UniProt Q9H422); conditions: Compound concentration 1000.0 nM
[20] = molecular target: Mast/stem cell growth factor receptor Kit (Homo sapiens) (UniProt P10721); conditions: Compound concentration 1000.0 nM
[21] = molecular target: Sigma intracellular receptor 2 (Homo sapiens) (UniProt Q5BJF2); conditions: Compound concentration 10.0 uM
[22] = molecular target: Tyrosine-protein kinase JAK1 (Homo sapiens) (UniProt P23458); conditions: Compound concentration 1000.0 nM
[23] = molecular target: GABA-A receptor; anion channel (Rattus norvegicus) (UniProt O09028+P15431+P18506+P18508+P19969+P20236+P23574+P23576+P28471+P28473+P30191+P62813+P63079+P63138+Q91ZM7+Q9ES14); conditions: Compound concentration 10.0 uM
[24] = molecular target: Alpha-1A adrenergic receptor (Homo sapiens) (UniProt P35348); conditions: Compound concentration 10.0 uM
Chain of Alpha-1A adrenergic receptor (Homo sapiens) (P35348 whole entry): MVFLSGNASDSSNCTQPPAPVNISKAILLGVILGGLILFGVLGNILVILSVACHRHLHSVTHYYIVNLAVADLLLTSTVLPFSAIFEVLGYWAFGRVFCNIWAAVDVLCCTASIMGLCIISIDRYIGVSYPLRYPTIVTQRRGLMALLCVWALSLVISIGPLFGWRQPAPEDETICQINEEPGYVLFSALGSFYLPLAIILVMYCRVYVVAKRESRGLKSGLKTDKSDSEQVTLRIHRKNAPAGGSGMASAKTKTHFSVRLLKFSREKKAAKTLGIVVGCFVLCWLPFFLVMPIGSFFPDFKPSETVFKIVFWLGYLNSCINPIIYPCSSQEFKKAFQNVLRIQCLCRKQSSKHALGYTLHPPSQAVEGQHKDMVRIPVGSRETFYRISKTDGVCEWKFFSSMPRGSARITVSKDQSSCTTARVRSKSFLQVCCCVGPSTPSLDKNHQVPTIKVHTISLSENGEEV

[25] = molecular target: Protein kinase C delta type (Homo sapiens) (UniProt Q05655); conditions: Compound concentration 1000.0 nM
[26] = molecular target: Serine/threonine-protein kinase 35 (Homo sapiens) (UniProt Q8TDR2); conditions: Compound concentration 1000.0 nM
[27] = molecular target: MAP/microtubule affinity-regulating kinase 4 (Homo sapiens) (UniProt Q96L34); conditions: Compound concentration 1000.0 nM
[28] = molecular target: Serine/threonine-protein kinase STK11 (Homo sapiens) (UniProt Q15831); conditions: Compound concentration 1000.0 nM
[29] = molecular target: Ribosomal protein S6 kinase alpha-3 (Homo sapiens) (UniProt P51812); conditions: Compound concentration 1000.0 nM
[30] = molecular target: Sodium-dependent serotonin transporter (Homo sapiens) (UniProt P31645); experiment: 5HTTRANS/HU Eurofins-Panlabs selectivity data (BI); conditions: Compound concentration 10.0 uM
[31] = molecular target: SRSF protein kinase 1 (Homo sapiens) (UniProt Q96SB4); conditions: Compound concentration 1000.0 nM
Chain of SRSF protein kinase 1 (Homo sapiens) (Q96SB4 whole entry): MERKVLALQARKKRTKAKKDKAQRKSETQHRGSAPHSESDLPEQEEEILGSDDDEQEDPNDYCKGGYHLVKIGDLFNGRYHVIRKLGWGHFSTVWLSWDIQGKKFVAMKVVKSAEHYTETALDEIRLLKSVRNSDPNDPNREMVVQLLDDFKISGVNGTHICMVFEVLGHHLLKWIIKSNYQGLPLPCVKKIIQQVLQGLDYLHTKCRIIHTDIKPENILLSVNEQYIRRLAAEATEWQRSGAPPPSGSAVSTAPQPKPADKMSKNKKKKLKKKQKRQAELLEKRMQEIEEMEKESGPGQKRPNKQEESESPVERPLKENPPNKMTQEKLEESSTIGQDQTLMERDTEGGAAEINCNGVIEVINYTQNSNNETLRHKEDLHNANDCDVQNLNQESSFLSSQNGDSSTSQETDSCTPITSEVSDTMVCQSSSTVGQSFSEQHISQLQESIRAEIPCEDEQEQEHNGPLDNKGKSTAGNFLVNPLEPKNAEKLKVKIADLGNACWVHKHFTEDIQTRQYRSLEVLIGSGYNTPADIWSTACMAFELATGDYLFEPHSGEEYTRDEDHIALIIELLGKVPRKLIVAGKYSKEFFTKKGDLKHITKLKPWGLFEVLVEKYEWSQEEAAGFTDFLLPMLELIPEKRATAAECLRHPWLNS

[32] = molecular target: Phosphatidylinositol 3-kinase catalytic subunit type 3 (Homo sapiens) (UniProt Q8NEB9); conditions: Compound concentration 1000.0 nM
[33] = molecular target: STE20-like serine/threonine-protein kinase (Homo sapiens) (UniProt Q9H2G2); conditions: Compound concentration 1000.0 nM
[34] = molecular target: Histamine H2 receptor (Homo sapiens) (UniProt P25021); conditions: Compound concentration 10.0 uM
[35] = molecular target: Serine/threonine-protein kinase Chk2 (Homo sapiens) (UniProt O96017); conditions: Compound concentration 1000.0 nM
[36] = molecular target: Phosphorylase b kinase gamma catalytic chain, skeletal muscle/heart isoform (Homo sapiens) (UniProt Q16816); conditions: Compound concentration 1000.0 nM
[37] = molecular target: Serine/threonine-protein kinase 32B (Homo sapiens) (UniProt Q9NY57); conditions: Compound concentration 1000.0 nM
[38] = molecular target: Tyrosine-protein kinase Tec (Homo sapiens) (UniProt P42680); conditions: Compound concentration 1000.0 nM
[39] = molecular target: Mitogen-activated protein kinase 13 (Homo sapiens) (UniProt O15264); conditions: Compound concentration 1000.0 nM
Chain of Mitogen-activated protein kinase 13 (Homo sapiens) (O15264 whole entry): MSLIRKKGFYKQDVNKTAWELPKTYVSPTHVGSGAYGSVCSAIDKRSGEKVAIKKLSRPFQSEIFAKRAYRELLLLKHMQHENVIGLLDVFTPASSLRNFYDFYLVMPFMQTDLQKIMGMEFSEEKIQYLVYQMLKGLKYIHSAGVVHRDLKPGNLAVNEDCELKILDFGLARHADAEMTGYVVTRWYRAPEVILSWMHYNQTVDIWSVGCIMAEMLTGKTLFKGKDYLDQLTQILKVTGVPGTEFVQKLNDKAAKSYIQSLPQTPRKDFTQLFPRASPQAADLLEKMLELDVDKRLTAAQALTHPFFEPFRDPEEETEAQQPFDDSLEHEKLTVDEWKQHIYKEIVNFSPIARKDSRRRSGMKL

[40] = molecular target: Urotensin-2 receptor (Homo sapiens) (UniProt Q9UKP6); experiment: UROTENSIN_II Eurofins-Panlabs selectivity data (BI); conditions: Compound concentration 10.0 uM
[41] = molecular target: Tyrosine-protein kinase Fgr (Homo sapiens) (UniProt P09769); conditions: Compound concentration 1000.0 nM
[42] = molecular target: cGMP-inhibited 3',5'-cyclic phosphodiesterase 3A (Homo sapiens) (UniProt Q14432); experiment: PDE-III/HU Eurofins-Panlabs selectivity data (BI); conditions: Compound concentration 10.0 uM
[43] = molecular target: Serine/threonine-protein kinase Nek3 (Homo sapiens) (UniProt P51956); conditions: Compound concentration 1000.0 nM
Chain of Serine/threonine-protein kinase Nek3 (Homo sapiens) (P51956 whole entry): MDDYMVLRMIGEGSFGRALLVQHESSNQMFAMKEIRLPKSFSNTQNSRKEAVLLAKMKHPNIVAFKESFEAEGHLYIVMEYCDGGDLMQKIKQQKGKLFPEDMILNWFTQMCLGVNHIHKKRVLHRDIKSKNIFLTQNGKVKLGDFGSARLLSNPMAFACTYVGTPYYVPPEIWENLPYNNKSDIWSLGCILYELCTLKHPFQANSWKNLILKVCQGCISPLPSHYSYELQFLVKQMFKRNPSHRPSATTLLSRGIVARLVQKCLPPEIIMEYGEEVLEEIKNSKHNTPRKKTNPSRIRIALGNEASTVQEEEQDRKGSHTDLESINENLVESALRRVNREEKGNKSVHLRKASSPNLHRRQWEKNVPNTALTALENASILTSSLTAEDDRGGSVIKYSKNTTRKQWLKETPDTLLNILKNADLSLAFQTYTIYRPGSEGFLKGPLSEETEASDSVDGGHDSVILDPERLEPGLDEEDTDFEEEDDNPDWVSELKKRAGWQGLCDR

[44] = molecular target: Ephrin type-A receptor 1 (Homo sapiens) (UniProt P21709); conditions: Compound concentration 1000.0 nM

Chain of Histamine H1 receptor (Homo sapiens) (P35367 whole entry): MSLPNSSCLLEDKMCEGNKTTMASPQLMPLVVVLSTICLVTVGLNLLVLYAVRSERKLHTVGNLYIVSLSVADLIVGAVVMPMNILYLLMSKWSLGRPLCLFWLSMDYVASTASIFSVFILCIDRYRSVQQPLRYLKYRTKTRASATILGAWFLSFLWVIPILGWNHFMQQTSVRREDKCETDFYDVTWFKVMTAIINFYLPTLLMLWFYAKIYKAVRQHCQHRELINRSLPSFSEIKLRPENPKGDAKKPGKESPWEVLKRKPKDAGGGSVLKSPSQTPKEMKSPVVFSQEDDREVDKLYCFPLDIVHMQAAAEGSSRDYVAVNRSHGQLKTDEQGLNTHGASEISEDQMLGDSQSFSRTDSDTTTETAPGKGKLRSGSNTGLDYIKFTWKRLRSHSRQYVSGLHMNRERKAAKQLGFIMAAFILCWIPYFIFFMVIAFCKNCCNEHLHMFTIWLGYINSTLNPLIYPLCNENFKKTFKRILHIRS
Chain of TGF-beta receptor type-2 (Homo sapiens) (P37173 whole entry): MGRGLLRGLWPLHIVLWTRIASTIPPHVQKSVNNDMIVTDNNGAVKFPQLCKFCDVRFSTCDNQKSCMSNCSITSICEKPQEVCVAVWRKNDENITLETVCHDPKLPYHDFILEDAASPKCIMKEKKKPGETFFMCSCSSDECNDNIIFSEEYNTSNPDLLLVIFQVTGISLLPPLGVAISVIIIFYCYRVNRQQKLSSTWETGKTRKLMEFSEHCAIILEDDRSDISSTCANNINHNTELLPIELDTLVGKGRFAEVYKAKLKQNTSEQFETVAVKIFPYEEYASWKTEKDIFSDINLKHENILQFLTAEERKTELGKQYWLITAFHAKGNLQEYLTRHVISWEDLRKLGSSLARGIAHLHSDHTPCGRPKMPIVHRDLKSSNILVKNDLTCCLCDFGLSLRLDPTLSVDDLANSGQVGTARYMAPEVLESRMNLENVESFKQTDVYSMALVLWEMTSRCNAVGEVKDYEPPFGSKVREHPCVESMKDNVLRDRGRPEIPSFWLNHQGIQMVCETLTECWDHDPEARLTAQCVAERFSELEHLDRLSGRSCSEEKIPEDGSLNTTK

SMILES: CCOCCn1cc(C(=O)Nc2ccc(-n3nc(-c4cccnc4)cc3C(F)(F)F)cn2)ccc1=O [BI 1935]
- residual activity [1]: 67%
- residual activity [2]: 100%
- inhibition [3]: 12.2%
- residual activity [4]: 100%
- residual activity [5]: 97%
- residual activity [6]: 100%
- residual activity [7]: 100%
- residual activity [8]: 81%
- residual activity [9]: 93%
- residual activity [10]: 100%
- residual activity [11]: 97%
- residual activity [12]: 96%
- residual activity [13]: 84%
- residual activity [14]: 100%
- residual activity [15]: 97%
- residual activity [16]: 103%
- residual activity [17]: 96%
- residual activity [18]: 63%
- residual activity [19]: 76%
- residual activity [20]: 100%
- inhibition [21]: -2.98%
- residual activity [22]: 37%
- inhibition [23]: 18.1%
- inhibition [24]: 29.3%
- residual activity [25]: 100%
- residual activity [26]: 94%
- residual activity [27]: 100%
- residual activity [28]: 89%
- residual activity [29]: 87%
- residual activity [30]: 100%
- residual activity [31]: 98%
- residual activity [32]: 77%
- residual activity [33]: 100%
- inhibition [34]: -3.48%
- residual activity [35]: 0%
- residual activity [36]: 100%
- residual activity [37]: 100%
- residual activity [38]: 100%
- residual activity [39]: 97%
- residual activity [40]: 97%
- residual activity [41]: 100%
- residual activity [42]: 85%
- residual activity [43]: 100%
- residual activity [44]: 82%
